Several values for one entry are separate records, joined by “and”; a condition that tells them apart may be missing. Equal entries are not always repeated. Blank lines part the entries; values can stand above or below the compound they belong to.
Assays:
[1] = system: eye; assay: Clinical observations stated in the description (miosis, duration, blur, redness, anterior chamber); type: in vivo, human
[2] = Stability of aceclidine at 25° C. and 4° C. by HPLC (Example 10); type: physicochemical
Description: 20 samples of the above composition were divided evenly and stored at 25° C. and 4° C. Prior to storage, initial concentrations of aceclidine were measured using […] (“HPLC”). The amount of aceclidine in each solution was calculated by the area under the principal peak compared to a reference solution of aceclidine. Samples were then subject to storage for 3 months. Aceclidine measurements were taken at 1, 2 and 3 months.

[3] = system: presbyopic subjects; assay: Effect of aceclidine on vision of presbyopic subjects aged 47 to 67 years (Example 1); type: in vivo, human; details: for Effect: duration of effect; for L Post Dist: left eye distance vision; for L Post Dist / L Post Near / R Post Dist / R Post Near: Post Gtt 15″; for R Post Dist: right eye distance vision
Description: As aceclidine is an […], the clinical effectiveness may vary with different ratios. For the present studies a nearly exact 50:50 ratio of stereoisomers was measured as best determined by polarimetry.
After administration of the composition all subjects experienced an improvement in their near vision that lasted from 7 to 12 hours.

[4] = system: emmetrope over the age of 45; assay: Effects of pilocarpine and aceclidine with or without tropicamide and carrier on near and distance vision (FIG. 1); type: in vivo, human
Excerpt: Subject is an emmetrope over the age of 45 with a baseline near vision of 20.100 and baseline distance vision of 20.20. Topical administration to the eye of 1% w/v pilocarpine in saline solution results in an improvement of near vision to 20.40 (8a), however this improvement comes at the expense of a reduction in distance vision to 20.100 (8b). […] A proper drug carrier can also have a beneficial effect.

[5] = Aceclidine total related substances after storage with or without Mylar lined pouches (Example 18); type: physicochemical
Description: Aceclidine total related substances was recorded at 1, 2, 3 and 6 months.
Mylar® was used as the source of biaxially-oriented polyethylene terephthalate. Mylar is a registered trademark of and available from DuPont Teijin Films US Limited.

[6] = Aceclidine potency following storage (Example 19); type: physicochemical
[7] = system: eye; assay: Effect of concentration of aceclidine, brimonidine, guanfacine, fadolmidine, tropicamide and additives (Example 3); type: in vivo, human
Description: All percentages are w/v. Scores for nasal congestion, stinging initial, stinging, 3 min, redness initial, redness 15 min, whitening, pain and overall are out of 4.
“pt” reflects size of print materials, 4 being equivalent to 20/20 vision and 3 to 20/15 vision.
Baseline vision was 20.20 both eyes for distance; 20.70 right eye unaided for near; 20.80 left eye for near (best @ 16″).
D/C stands for discontinued after eye washing due to intolerable stinging.
All baseline vision data was based on vision corrected with distance contact lenses. Near vision was noted by subject as outstanding from 8 to 10 inches to the horizon at 30 minutes after installation for AB4T and AB6T.
AB4T and AB6T were repeated both monocularly and binocularly. Substantial improvement in depth perception, near point acuity to 3 pt (20.15), and near point distance (8″, 20.20) was noted when both eyes were treated vs. monocular treatment.

[8] = system: eye; details: cited from earlier work
[9] = system: eye; assay: Efficacy and comfort of various nonionic surfactants (Example 15, Table 10); parameters: species or system human; details: in vivo
Excerpt: Duration was excellent for each nonionic surfactant tested.

[10] = aceclidine 1.1% w/v + 0.125% w/v tropicamide, subjects 4 and 5
[11] = aceclidine 1.5% w/v in HPβCD/CMC/NaCl/BAK, one line per subject
[12] = Pouched (5 C.), first listing (r9)
[13] = Pouched (5 C.), second listing (r12)
[14] = Pouched (25 C.), first listing (r10)
[15] = Pouched (25 C.), second listing (r13)
[16] = Pouched (5 C.), first group (initial 99.70%)
[17] = Pouched (5 C.), second group (initial 99.60%)
[18] = Pouched (25 C.), first group (initial 99.70%)
[19] = Pouched (25 C.), second group (initial 99.60%)

Compound: CC(=O)OC1CN2CCC1CC2 (stereo not drawn) [Aceclidine, aceclidine]
anterior chamber shallowing ([1]; aceclidine with further inclusion of a cycloplegic agent): 0.04 mm
Stability of Aceclidine, 1 month ([2]; 4° C., Example 10 composition): 93%
Stability of Aceclidine, 2 months ([2]; 4° C., Example 10 composition): 92%
Stability of Aceclidine, 3 months ([2]; 4° C., Example 10 composition): 88%
Stability of Aceclidine, Initial ([2]; 4° C., Example 10 composition): 100%
Stability of Aceclidine, 1 month ([2]; 25° C., Example 10 composition): 92%
Stability of Aceclidine, 2 months ([2]; 25° C., Example 10 composition): 75%
Stability of Aceclidine, 3 months ([2]; 25° C., Example 10 composition): 50%
Stability of Aceclidine, Initial ([2]; 25° C., aceclidine 1.50%, tropicamide 0.042%, polyoxyl 40 stearate 5.5%, mannitol 2.5%, citrate 3 mM, pH 4.75): 100%
Effect [3, 10]: 7.00 h and 12.00 h
Effect [3, 11]: 8.00 h (4×) and 9.00 h
L Post Dist [3, 10]: 20.20 and 20.15
L Post Dist [3, 11]: 20.20 (2×) and 20.30 and 20.25 (2×)
L Post Near ([3]; left eye near vision (15 inches), aceclidine 1.5% w/v in HPβCD/CMC/NaCl/BAK, one line per subject): 20.15 (3×) and 20.30 and 20.20
L Post Near ([3]; left eye near vision, aceclidine 1.1% w/v + 0.125% w/v tropicamide, subjects 4 and 5): 20.25 and 20.15
R Post Dist ([3]; aceclidine 1.1% w/v + 0.125% w/v tropicamide, same carrier, subjects 4 and 5): 20.20 and 20.15
R Post Dist [3, 11]: 20.20 (3×) and 20.25 (2×)
R Post Near ([3]; right eye near vision (15 inches), aceclidine 1.5% w/v in HPβCD/CMC/NaCl/BAK, one line per subject): 20.15 (3×) and 20.20 and 20.25
R Post Near ([3]; right eye near vision, aceclidine 1.1% w/v + 0.125% w/v tropicamide, subjects 4 and 5): 20.25 and 20.20
extended time period of near vision improvement ([4]; 1.55% w/v aceclidine in saline solution): 6 h
distance vision ([4]; 1.55% w/v aceclidine in saline solution, baseline 20.20): without any effect on the baseline distance vision
near vision ([4]; 1.55% w/v aceclidine in saline solution, baseline near 20.100): 20.40
near vision ([4]; aceclidine + 0.042% w/v tropicamide in the carrier): 20.15
near vision ([4]; aceclidine in carrier (5.5% HPβCD, 0.75% CMC, 0.25% NaCl, 0.01% BAK), better than): > 20.20
Aceclidine Total Related Substances, One Month Result [5, 12]: 0.54%
Aceclidine Total Related Substances, Six Month Result [5, 12]: 0.47%
Aceclidine Total Related Substances, Three Month Result [5, 12]: 0.35%
Aceclidine Total Related Substances, Total % Change [5, 12]: 0.06%
Aceclidine Total Related Substances, One Month Result [5, 13]: 0.50%
Aceclidine Total Related Substances, Six Month Result [5, 13]: 0.00%
Aceclidine Total Related Substances, Three Month Result [5, 13]: 0.18%
Aceclidine Total Related Substances, Total % Change [5, 13]: −0.41%
Aceclidine Total Related Substances, One Month Result [5, 14]: 0.55%
Aceclidine Total Related Substances, Six Month Result [5, 14]: 0.36%
Aceclidine Total Related Substances, Three Month Result [5, 14]: 1.26%
Aceclidine Total Related Substances, Total % Change [5, 14]: −0.05% and 0.05%
Aceclidine Total Related Substances, One Month Result [5, 15]: 0.74%
Aceclidine Total Related Substances, Six Month Result [5, 15]: 0.00%
Aceclidine Total Related Substances, Three Month Result [5, 15]: 0.31%
Aceclidine Total Related Substances, Total % Change [5, 15]: −0.41%
Aceclidine Total Related Substances, One Month Result ([5]; Pouched (−20 C.)): 0.74%
Aceclidine Total Related Substances, Six Month Result ([5]; Pouched (−20 C.)): 0.00%
Aceclidine Total Related Substances, Three Month Result ([5]; Pouched (−20 C.)): 0.25%
Aceclidine Total Related Substances, Total % Change ([5]; Pouched (−20 C.)): −0.41%
Aceclidine Total Related Substances, One Month Result ([5]; Unpouched (5 C.)): 0.55%
Aceclidine Total Related Substances, Six Month Result ([5]; Unpouched (5 C.)): 0.49%
Aceclidine Total Related Substances, Three Month Result ([5]; Unpouched (5 C.)): 0.05%
Aceclidine Total Related Substances, Total % Change ([5]; Unpouched (5 C.)): 0.08%
Aceclidine Total Related Substances, Two Month Result ([5]; Unpouched (5 C.)): 0.51%
Aceclidine Total Related Substances, Initial Result ([5]; Unpouched (5 C.) line, initial): 0.41%
Aceclidine Total Related Substances, One Month Result ([5]; Unpouched (25 C.)): 0.58%
Aceclidine Total Related Substances, Six Month Result ([5]; Unpouched (25 C.)): 4.87%
Aceclidine Total Related Substances, Three Month Result ([5]; Unpouched (25 C.)): 1.39%
Aceclidine Total Related Substances, Total % Change ([5]; Unpouched (25 C.)): 4.46%
Aceclidine Total Related Substances, Two Month Result ([5]; Unpouched (25 C.)): 1.45%
Aceclidine Potency, One Month Result [6, 16]: 100.0%
Aceclidine Potency, Six Month Result [6, 16]: 100.8%
Aceclidine Potency, Three Month Result [6, 16]: 99.7%
Percent Change Between Initial and Six Month Results [6, 16]: 1.1%
Aceclidine Potency, One Month Result [6, 17]: 99.5%
Aceclidine Potency, Six Month Result [6, 17]: 102.2%
Aceclidine Potency, Three Month Result [6, 17]: 102.3%
Percent Change Between Initial and Six Month Results [6, 17]: 2.6%
Aceclidine Potency, One Month Result [6, 18]: 98.4%
Aceclidine Potency, Six Month Result [6, 18]: 94.9%
Aceclidine Potency, Three Month Result [6, 18]: 97.5%
Percent Change Between Initial and Six Month Results [6, 18]: −4.8%
Aceclidine Potency, One Month Result [6, 19]: 103.0%
Aceclidine Potency, Six Month Result [6, 19]: 96.0%
Aceclidine Potency, Three Month Result [6, 19]: 99.0%
Percent Change Between Initial and Six Month Results [6, 19]: 3.6%
Aceclidine Potency, One Month Result ([6]; Pouched (−25 C.)): 98.5%
Aceclidine Potency, Six Month Result ([6]; Pouched (−25 C.)): 103.1%
Aceclidine Potency, Three Month Result ([6]; Pouched (−25 C.)): 101.4%
Percent Change Between Initial and Six Month Results ([6]; Pouched (−25 C.)): 3.5%
Aceclidine Potency, Initial Result ([6]; Pouched (−25 C.) line, initial of second group): 99.60%
Aceclidine Potency, One Month Result ([6]; Unpouched (5 C.)): 99.3%
Aceclidine Potency, Six Month Result ([6]; Unpouched (5 C.)): 100.5%
Aceclidine Potency, Three Month Result ([6]; Unpouched (5 C.)): 100.0%
Aceclidine Potency, Two Month Result ([6]; Unpouched (5 C.)): 102.0%
Percent Change Between Initial and Six Month Results ([6]; Unpouched (5 C.)): 0.8%
Aceclidine Potency, Initial Result ([6]; Unpouched (5 C.) line, initial of first group): 99.70%
Aceclidine Potency, One Month Result ([6]; Unpouched (25 C.)): 98.2%
Aceclidine Potency, Six Month Result ([6]; Unpouched (25 C.)): 97.7%
Aceclidine Potency, Three Month Result ([6]; Unpouched (25 C.)): 98.2%
Aceclidine Potency, Two Month Result ([6]; Unpouched (25 C.)): 101.9%
Percent Change Between Initial and Six Month Results ([6]; Unpouched (25 C.)): −2.0%
corrected near and distance vision to 20.20 or better, duration ([7]; aceclidine 1.55% w/v): at least 6 hours
noticeable affect lasting ([7]; aceclidine 1.55% w/v): about 7.5 hours
size of the pupil ([7]; aceclidine 1.55% w/v, 30 minutes after topical instillation): about 1.63 mm
near vision improvement ([7]; aceclidine lowered to 1.25% w/v (not shown)): 20.25-20.30

Compound: Brc1c(NC2=NCCN2)ccc2nccnc12 [brimonidine]
rebound redness, patients ([8]; brimonidine 0.20% w/v (Alphagan®) twice daily): 25%
tachyphylaxis of pupil modulation, treated subjects ([8]; brimonidine 0.20% w/v topically for night vision, within four weeks of use, almost): ~100%

Compound: CC[C@@H]1C(=O)OC[C@@H]1Cc1cncn1C [pilocarpine]
distance blur ([1]; pilocarpine instilled monocularly): 2-3 lines
pupil size ([1]; upon instillation of 1.0% pilocarpine, or larger in most subjects): ≥ 2.3 mm

Compound: Poloxamer 407
Redness 1 hr [9]: 1
Stinging [9]: 0.5

Compound: Polysorbate 80
Redness 1 hr [9]: 0.5
Stinging [9]: 0.25

The remaining lines, values ahead:

Redness 1 hr [9]: 0.25-
Stinging [9]: 0-2
Compound: Poloxamer 188

Redness 1 hr [9]: 0.25
Stinging [9]: 0
Compound: Polyoxyl 35 castor oil

Redness 1 hr [9]: 0.25-
Stinging [9]: 0-2
Compound: Tyloxapol
